Results taken from ChEMBL document CHEMBL3885861, “Open TG-GATES”.

Organism: Rattus norvegicus
Assay: Open TG-GATES - Regimen: Single
Format: toxicity, organism-based, Sprague-Dawley
Design: regimen Single, gender Male, age 6 weeks
Conditions: in vivo, po, 0 mg/kg, route gavage, dose level Control; for Bas / Eos / Fbg / Lym / Mono / RBC / Ret / WBC: tissue Blood; for KIDNEY_L / KIDNEY_R / KIDNEY_TOTAL: tissue Kidney

Q: What does the source list for `C=C[C@H]1C[N@@]2CC[C@H]1C[C@@H]2[C@@H](O)c1ccnc2ccc(OC)cc12` [QUINIDINE]?
A: TERMINAL_BW (3 h): 212.2 g; Bas (3 h): 0%; Eos (3 h): 0.8%; Fbg (3 h): 313.6 mg/dL; Lym (3 h): 78.2%; Mono (3 h): 1.8%; RBC (3 h): 615 x10_4/ul; Ret (3 h): 7.3%; WBC (3 h): 86.7 x10_2/uL; KIDNEY_L (3 h): 0.9 g; KIDNEY_R (3 h): 1 g; KIDNEY_TOTAL (3 h): 1.9 g; ALP (3 h, tissue Plasma): 1497.8 IU/L; CRE (3 h, tissue Plasma): 0.2 mg/dL; DBIL (3 h, tissue Plasma): 0 mg/dL; IP (3 h, tissue Plasma): 8.8 mg/dL; K (3 h, tissue Plasma): 3.9 meq/L; LDH (3 h, tissue Plasma): 153 IU/L; Na (3 h, tissue Plasma): 143.8 meq/L; PL (3 h, tissue Plasma): 136 mg/dL; RALB (3 h, tissue Plasma): 3 g/dL; TBIL (3 h, tissue Plasma): 0.018 mg/dL; TG (3 h, tissue Plasma): 60.6 mg/dL; TP (3 h, tissue Plasma): 5.4 g/dL; gamma-GTP (3 h, tissue Plasma): 1.8 IU/L; TERMINAL_BW (6 h): 213.3 g; Bas (6 h): 0%; Eos (6 h): 0.6%; Fbg (6 h): 318.2 mg/dL; Lym (6 h): 81.4%; Mono (6 h): 2.2%; RBC (6 h): 641 x10_4/ul; Ret (6 h): 7%; WBC (6 h): 100 x10_2/uL; KIDNEY_L (6 h): 1 g; KIDNEY_R (6 h): 1 g; KIDNEY_TOTAL (6 h): 1.9 g; ALP (6 h, tissue Plasma): 1503.8 IU/L; CRE (6 h, tissue Plasma): 0.2 mg/dL; DBIL (6 h, tissue Plasma): 0 mg/dL; IP (6 h, tissue Plasma): 9.3 mg/dL; K (6 h, tissue Plasma): 4.2 meq/L; LDH (6 h, tissue Plasma): 187 IU/L; Na (6 h, tissue Plasma): 143 meq/L; PL (6 h, tissue Plasma): 134.8 mg/dL; RALB (6 h, tissue Plasma): 3.1 g/dL; TBIL (6 h, tissue Plasma): 0.018 mg/dL; TG (6 h, tissue Plasma): 73.6 mg/dL; TP (6 h, tissue Plasma): 5.4 g/dL; gamma-GTP (6 h, tissue Plasma): 1.2 IU/L; TERMINAL_BW (9 h): 212.8 g; Bas (9 h): 0%; Eos (9 h): 0.4%; Fbg (9 h): 288.2 mg/dL; Lym (9 h): 79.4%; Mono (9 h): 2%; RBC (9 h): 614.8 x10_4/ul; Ret (9 h): 6.9%; WBC (9 h): 84.8 x10_2/uL; KIDNEY_L (9 h): 1 g; KIDNEY_R (9 h): 1 g; KIDNEY_TOTAL (9 h): 1.9 g; ALP (9 h, tissue Plasma): 1297.8 IU/L; CRE (9 h, tissue Plasma): 0.2 mg/dL; DBIL (9 h, tissue Plasma): 0 mg/dL; GLC (9 h, tissue Plasma): 174.2 mg/dL; IP (9 h, tissue Plasma): 9.6 mg/dL; K (9 h, tissue Plasma): 4.4 meq/L; LDH (9 h, tissue Plasma): 136.6 IU/L; Na (9 h, tissue Plasma): 143.8 meq/L; PL (9 h, tissue Plasma): 131.6 mg/dL; RALB (9 h, tissue Plasma): 3 g/dL; TBIL (9 h, tissue Plasma): 0.022 mg/dL; TG (9 h, tissue Plasma): 66 mg/dL; TP (9 h, tissue Plasma): 5.5 g/dL; gamma-GTP (9 h, tissue Plasma): 1.6 IU/L; TERMINAL_BW (24 h): 227.4 g; Bas (24 h): 0%; Eos (24 h): 0.8%; Fbg (24 h): 298.2 mg/dL; Lym (24 h): 78.6%; Mono (24 h): 1.8%; RBC (24 h): 618.4 x10_4/ul; Ret (24 h): 6.9%; WBC (24 h): 90.9 x10_2/uL; KIDNEY_L (24 h): 1 g; KIDNEY_R (24 h): 1 g; KIDNEY_TOTAL (24 h): 2 g; ALP (24 h, tissue Plasma): 1610.6 IU/L; CRE (24 h, tissue Plasma): 0.1 mg/dL; DBIL (24 h, tissue Plasma): 0 mg/dL; IP (24 h, tissue Plasma): 7.9 mg/dL; K (24 h, tissue Plasma): 4.3 meq/L; LDH (24 h, tissue Plasma): 202.2 IU/L; Na (24 h, tissue Plasma): 141.6 meq/L; PL (24 h, tissue Plasma): 149.8 mg/dL; RALB (24 h, tissue Plasma): 3 g/dL; TBIL (24 h, tissue Plasma): 0.008 mg/dL; TP (24 h, tissue Plasma): 5.7 g/dL
